In brackets after ≈: the same amount, converted by molar mass. Non-standard residues stand in square brackets, D forms with d. Residues, ends and D or L forms follow the SMILES beside them. Abu = CC[C@H](N)C(=O)O
Test system: Fusarium culmorum (IMI 180420)
Assay: Antifungal growth inhibition microplate assay (photospectrometry)
Assay type: cell-based
Settings: for IC50 1/2 PDB: 2 × 10^4 spores/ml; for IC50 1/2 PDB / IC50 SMF + pH5 / IC50 SMF + pH7: duplo; for antifungal activity (in words): overlapping 13- to 20-mer MPS peptides Ile26-Phe49, Cys replaced by alpha-aminobutyric acid, FIGS. 10-13; for IC50 ½ PDB: peptides single experiment; for F CULMORUM IC50: Table 7 / FIG. 8: Rs-AFP1-based 12-mer split peptides
Experimental: The following fungal strains were used: Alternaria brassicicola (MUCL 20297), Ascophyta pisi (MUCL 30164), Botrytis cinerea (MUCL 30158), Fusarium culmorum (IMI 180420) and Verticillium dahliae (MUCL 19210).
Fungi were grown on six cereal agar plates at room temperature and under white fluorescent light except for F culmorum and V dahliae which were grown in the dark. The duration of the spore harvest varied between 10 and 25 days depending on the strain. Spores were collected as follows. Five to ten ml of sterile milli-Q water was poured into each dish and the surface of the agar was rubbed with a sterile spatula to obtain a suspension containing mycelium and spores. This suspension was filtered through a sterile glasswool-plugged funnel and the filtrate containing the spores was collected in a sterile polypropylene centrifuge tube. The A brassicicola spores were suspended in sterile 0.1 Tween 20 (Merk, 822184) due to their hydrophobic nature. The spore suspensions were then washed twice by centrifugation at 2,400×g for 15 minutes and resuspended in a small volume of steril milli-Q water. The spore density was determined in a counting chamber and then adjusted to 4×10^7 spores per ml. Aliquots of the spore suspension were transferred to sterile microtubes and an equal volume of sterile 50% glycerol (Merck, 4091) was added to each tube so that a final spore suspension of 2×10^7 spores per ml in 25% glycerol was obtained. After careful mixing of the stock, the spore suspension was transferred in 100 μl aliquots to sterile microtubes and stored at −80° C.
Antifungal activity was measured by photospectrometry as described by Broekaert et al, (1990, FEMS Microbiol Lett, 69:55-60). Tests were performed by adding 20 μl of test solution and 80 μl of a fungal spore suspension (2×10^4 spores/ml) per well in a sterile flat-bottom 96-well microtiterplate. The spore suspension was prepared by diluting the stock spore suspension ([…] in 25% glycerol) 1:1000 in half-strength potato dextrose broth. A positive growth control consisting of eight wells containing 20 μl of sterile milli-Q water and 80 μl of the fungal spore suspension was included in each test. The microtiterplates were incubated (with the lid on) in an aerated place at room temperature and under conditions of darkness for all test organisms.
After 30 minutes of incubation (when the spores are settled on the well bottom) the optical density was measured in a microplate reader (Bio Rad 3550-UV) at 595 nm. Incubation of the microtiterplates continued until the optical density of the control microculture was between 0.250 and 0.500, which took approximately 72 hours (96 hours for V dahliae). Percentage of growth inhibition (% GI) was estimated as 100 times the ratio of the corrected absorbance of the control microculture minus the corrected absorbance of the test microculture over the corrected absorbance of the control microculture at 595 nm. The corrected absorbance values equal the absorbance at 595 nm of the culture measured after 72 or 96 hours minus the absorbance at 595 nm measured after 30 minutes.
% GI=[(Acontrol−Atest/Acontrol]×100
where Acontrol=(A72/96h−A30min)control
The IC50 value is defined as the concentration that gives a 50% growth inhibition after 72 or 96 hours of incubation. The minimum inhibitory concentration (MIC) corresponds to the minimum concentration that gives 100% growth inhibition after 72 or 96 hours incubation.

[1] = Table 10: medium 1/16 PDB, one test, fungus not named in Example 7
[2] = Table 10: medium ½ PDB, one test, fungus not named in Example 7
[3] = Table 13: linear β2-β3 loop MPS peptides
[4] = Table 13: linear β2-β3 loop MPS peptides, SMF+ (1 mM Ca2+, 50 mM K+) pH5
[5] = Table 13: linear β2-β3 loop MPS peptides, SMF+ (1 mM Ca2+, 50 mM K+) pH7
[6] = Table 4 / FIG. 6: Rs-AFP2-based 12-mer split peptides, ½ PDB, the source numbers peptides by N-terminal amino acid
[7] = Table 4: Rs-AFP2-based 12-mer split peptides, ½ PDB, triplicate
[8] = Table 14: 18-, 19-, 20-mer peptides with C-terminal Phe49
[9] = ½ PDB, the source numbers peptides by N-terminal amino acid
[10] = Table 7: Rs-AFP1-based 12-mer split peptides, ½ PDB
[11] = Table 3 / FIG. 6: Rs-AFP2-based 9-mer split peptides, ½ PDB, the source numbers peptides by N-terminal amino acid
[12] = Table 3: Rs-AFP2-based 9-mer split peptides, ½ PDB, duplicate

## CC[C@H](NC(=O)[C@H](C)NC(=O)CNC(=O)[C@H](Cc1c[nH]cn1)NC(=O)[C@H](CO)NC(=O)[C@H](C)NC(C)=O)C(=O)N[C@@H](Cc1c[nH]cn1)C(=O)N[C@@H](CCCCN)C(=O)N[C@@H](CCCNC(=N)N)C(=O)N[C@@H](CCC(=O)O)C(=O)N[C@@H](CC(N)=O)C(=O)N[C@@H](Cc1c[nH]cn1)C(=O)N[C@@H](Cc1c[nH]c2ccccc12)C(=O)N[C@@H](CCCCN)C(=O)N[C@@H](CC)C(=O)N[C@@H](Cc1ccccc1)C(=O)N[C@@H](CC)C(=O)N[C@@H](Cc1ccc(O)cc1)C(=O)N[C@@H](Cc1ccccc1)C(N)=O [Peptide J1, ASHGABHKRENHWKBFBYF] (Ac-ASHGA[Abu]HKRENHWK[Abu]F[Abu]YF-NH2)
19-mer peptides, Example 7
  antifungal activity compared with peptide G1 (and G2), in words: even more active
[1]
  IC50: 5 µg/mL (≈ 2.16 µM)
  MIC: 6.25 µg/mL (≈ 2.7 µM)
[2]
  IC50: 9 µg/mL (≈ 3.89 µM)
  MIC: 12.5 µg/mL (≈ 5.41 µM)
[3]
  IC50 1/2 PDB: 9.1 ± 0.6 µg/mL (≈ 3.94 µM)
[4]
  IC50 SMF + pH5: 47 ± 33 μg/ml
[5]
  IC50 SMF + pH7: 173.4 ± 0.2 μg/ml
½ PDB
  activity compared to Rs-AFP counterpart G2: almost two-fold higher activity

## RHGSBNYVFPAHKBIBY (Ac-RHGS[Abu]NYVFPAHK[Abu]I[Abu]Y-NH2; listed as Raphanus sativus) [SEQ ID NO: 107]
  antifungal activity (in words): very active

## Ac-NQCIRLEKARHG-NH2 [compound 112]
[6]
  IC50: 149 µg/mL
[7]
  MIC: 200 µg/mL

## CC[C@H](C)[C@H](NC(=O)[C@H](CS)NC(=O)[C@H](CCC(N)=O)NC(=O)[C@H](CC(N)=O)NC(=O)[C@H](CCCCN)NC(=O)[C@H](CS)NC(=O)[C@H](C)NC(=O)[C@H](CC(N)=O)NC(C)=O)C(=O)N[C@@H](CCCNC(=N)N)C(=O)N[C@@H](CC(C)C)C(=O)N[C@@H](CCC(=O)O)C(=O)N[C@@H](CCCCN)C(N)=O [compound 108] (Ac-NACKNQCIRLEK-NH2)
[6]
  IC50: 150 µg/mL (≈ 103 µM)
[7]
  MIC: 200 µg/mL (≈ 137 µM)

## CC[C@H](NC(=O)[C@H](C)NC(=O)CNC(=O)[C@H](Cc1c[nH]cn1)NC(=O)[C@H](C)NC(=O)[C@H](C)NC(C)=O)C(=O)N[C@@H](Cc1c[nH]cn1)C(=O)N[C@H](C(=O)N[C@@H](CCCNC(=N)N)C(=O)N[C@@H](CC(N)=O)C(=O)NCC(=O)N[C@@H](CCCCN)C(=O)N[C@@H](Cc1c[nH]cn1)C(=O)N[C@@H](CCSC)C(=O)N[C@@H](CC)C(=O)N[C@@H](Cc1ccccc1)C(=O)N[C@@H](CC)C(=O)N[C@@H](Cc1ccc(O)cc1)C(=O)N[C@@H](Cc1ccccc1)C(N)=O)C(C)C [Peptide N5, AAHGABHVRNGKHMBFBYF] (Ac-AAHGA[Abu]HVRNGKHM[Abu]F[Abu]YF-NH2)
[3]
  IC50 1/2 PDB: 8.0 ± 0.4 µg/mL (≈ 3.74 µM)
[4]
  IC50 SMF + pH5: 20.9 ± 1.8 μg/ml
[5]
  IC50 SMF + pH7: 24.2 ± 0.2 μg/ml
½ PDB
  activity compared to Rs-AFP counterpart G2: almost two-fold higher activity

## CC[C@H](NC(=O)[C@H](CO)NC(=O)CNC(=O)[C@H](Cc1c[nH]cn1)NC(=O)[C@H](CCCNC(=N)N)NC(C)=O)C(=O)N[C@@H](CC(N)=O)C(=O)N[C@@H](Cc1ccc(O)cc1)C(=O)N[C@H](C(=O)N[C@@H](Cc1ccccc1)C(=O)N1CCC[C@H]1C(=O)N[C@@H](C)C(=O)N[C@@H](Cc1c[nH]cn1)C(=O)N[C@@H](CCCCN)C(=O)N[C@@H](CC)C(=O)N[C@H](C(=O)N[C@@H](CC)C(=O)N[C@@H](Cc1ccc(O)cc1)C(=O)N[C@@H](Cc1ccccc1)C(N)=O)[C@@H](C)CC)C(C)C [Peptide P02, RHGSBNYVFPAHKBIBYF] (Ac-RHGS[Abu]NYVFPAHK[Abu]I[Abu]YF-NH2)
[8]
  IC50 SMF + pH5: 69 ± 34 μg/ml
  IC50 SMF + pH7: 133 ± 6 μg/ml
  IC50 ½ PDB: 8.9 µg/mL (≈ 4.17 µM)

## 110 (CKNQCIRLEKAR; listed as Raphanus sativus) [compound 110]
[6]
  IC50: 148 µg/mL
[7]
  MIC: 200 µg/mL
[9]
  F CULMORUM IC50: 223 µg/mL
[10]
  F CULMORUM MIC: 400 µg/mL

## CC[C@H](C)[C@H](NC(=O)[C@H](CS)NC(=O)[C@H](CCC(N)=O)NC(=O)[C@H](CC(N)=O)NC(=O)[C@H](CCCCN)NC(=O)[C@H](CS)NC(=O)[C@H](C)NC(C)=O)C(=O)N[C@@H](CCCNC(=N)N)C(=O)N[C@@H](CC(C)C)C(N)=O [compound 66] (Ac-ACKNQCIRL-NH2)
[11]
  IC50: 105 µg/mL (≈ 96.4 µM)
[12]
  MIC: 150 µg/mL (≈ 138 µM)

## CC[C@H](NC(=O)[C@H](CO)NC(=O)CNC(=O)[C@H](Cc1c[nH]cn1)NC(=O)[C@H](CCCNC(=N)N)NC(=O)[C@H](C)NC(=O)[C@H](CCCCN)NC(C)=O)C(=O)N[C@@H](CC(N)=O)C(=O)N[C@@H](Cc1ccc(O)cc1)C(=O)N[C@H](C(=O)N[C@@H](Cc1ccccc1)C(=O)N1CCC[C@H]1C(=O)N[C@@H](C)C(=O)N[C@@H](Cc1c[nH]cn1)C(=O)N[C@@H](CCCCN)C(=O)N[C@@H](CC)C(=O)N[C@H](C(=O)N[C@@H](CC)C(=O)N[C@@H](Cc1ccc(O)cc1)C(=O)N[C@@H](Cc1ccccc1)C(N)=O)[C@@H](C)CC)C(C)C [Peptide N1, KARHGSBNYVFPAHKBIBYF] (Ac-KARHGS[Abu]NYVFPAHK[Abu]I[Abu]YF-NH2)
[3]
  IC50 1/2 PDB: 14.0 ± 6.2 µg/mL (≈ 6 µM)
[4]
  IC50 SMF + pH5: 27.0 ± 7.7 μg/ml
[5]
  IC50 SMF + pH7: 142.6 ± 13.6 μg/ml

## Ac-FPAHKC-NH2 [compound 40]
Table 2: Rs-AFP2-based 6-mer split peptides, ½ PDB, duplicate
  MIC: 100 µg/mL

## 116 (RLEKARHGSCNY; listed as Raphanus sativus) [compound 116]
[6]
  IC50: 202 µg/mL
[7]
  MIC: 400 µg/mL
[9]
  F CULMORUM IC50: 359 µg/mL
[10]
  F CULMORUM MIC: 400 µg/mL

## Ac-YVFPAHKCI-NH2 [compound 84]
[11]
  IC50: 175 µg/mL
[12]
  MIC: 400 µg/mL
Table 6 / FIG. 8: Rs-AFP1-based 9-mer split peptides, ½ PDB, the source numbers peptides by N-terminal amino acid
  F CULMORUM IC: 145 µg/mL
Table 6: Rs-AFP1-based 9-mer split peptides, ½ PDB
  F CULMORUM MIC: 250 µg/mL

## HGSBNYVFPAHKBIBY (Ac-HGS[Abu]NYVFPAHK[Abu]I[Abu]Y-NH2; listed as Raphanus sativus) [SEQ ID NO: 99]
  antifungal activity (in words): nonactive

## CC[C@H](NC(=O)[C@H](CO)NC(=O)CNC(=O)[C@H](Cc1c[nH]cn1)NC(=O)[C@H](CCCNC(=N)N)NC(=O)[C@H](C)NC(=O)[C@H](CCCCN)NC(C)=O)C(=O)N[C@@H](CC(N)=O)C(=O)N[C@@H](Cc1ccc(O)cc1)C(=O)N[C@H](C(=O)N[C@@H](Cc1ccccc1)C(=O)N1CCC[C@H]1C(=O)N[C@@H](C)C(=O)N[C@@H](Cc1c[nH]cn1)C(=O)N[C@@H](CCCCN)C(=O)N[C@@H](CC)C(=O)N[C@H](C(=O)N[C@@H](CC)C(=O)N[C@@H](Cc1ccc(O)cc1)C(=O)N[C@@H](Cc1ccccc1)C(N)=O)[C@@H](C)CC)C(C)C [Peptide Q06, KARHGSBNYVFPAHKBIBYF] (Ac-KARHGS[Abu]NYVFPAHK[Abu]I[Abu]YF-NH2)
[8]
  IC50 SMF + pH5: 31 ± 17 μg/ml
  IC50 SMF + pH7: 62 ± 8 μg/ml
  IC50 ½ PDB: 4.8 µg/mL (≈ 2.06 µM)

## Ac-CIRLEKARH-NH2 [compound 71]
[11]
  IC50: 66 µg/mL
[12]
  MIC: 100 µg/mL

Reference: patent publication US20030226169A1, “DNA sequences encoding antifungal proteins” (priority 1995, published 2003)
